Test results: US20240294489A1 (Captor Therapeutics S.A., priority 2020, published 2024)

Assays:
Type in all cases: cell-based
[1] = system: Kasumi-1; test: Cell viability, additional cell lines (CellTiter-Glo), Kasumi-1; conditions: Homo sapiens; Kasumi-1, 72 h; read-out: Absolute IC50
Description: (§1) Tumor cells are grown at 37° C. in a humidified atmosphere with 5% CO2 in RPMI 1640 medium, supplemented with 10% (v/v) fetal calf serum and 50 μg/ml gentamicin for up to 20 passages, and are passaged once or twice weekly.
(§2) Cells are harvested from exponential phase cultures, counted and plated in 96 well flat-bottom microtiter plates at a cell density depending on the cell line's growth rate (4,000-20,000 cells/well depending on the cell line's growth rate, up to 60,000 for hematological cancer cell lines) in RPMI 1640 medium supplemented with 10% (v/v) fetal calf serum and 50 μg/ml gentamicin (140 μl/well). Cultures are incubated at 37° C. and 5% CO2 in a humidified atmosphere. After 24 h, 10 μl of test compounds or control medium are added and left on the cells for another 72 h. Compounds are serially diluted in DMSO, transferred in cell culture medium, and added to the assay plates by using a Tecan Freedom EVO 200 robotic platform. The DMSO concentration is kept constant at 0.3% v/v across the assay plate. Viability of cells is quantified by the CellTiter-Glo® cell viability assay (Promega G8462). After incubation of cells, 100 μl of CellTiter-Glo® One Solution Assay reagent are added to each well. Plates are shaken for 2 minutes to induce cell lysis and incubated for 20 minutes prior to reading luminescence (LU) by using the EnVision® Xcite multilabel plate reader (Perkin Elmer). […]

[2] = system: PL-21; test: Cell viability, additional cell lines (CellTiter-Glo), PL-21; conditions: PL-21, 72 h; read-out: Absolute IC50
Description: as §1, §2

[3] = system: NOMO-1; test: Cell viability, additional cell lines (CellTiter-Glo), NOMO-1; conditions: Homo sapiens, NOMO-1, 72 h; read-out: Absolute IC50
Description: as §1, §2

[4] = system: OPM-2; test: Cell viability, additional cell lines (CellTiter-Glo), OPM-2; conditions: Homo sapiens, OPM-2, 72 h; read-out: Absolute IC50
Description: as §1, §2

[5] = system: MOLT-4; test: Cell viability, additional cell lines (CellTiter-Glo), MOLT-4; conditions: Homo sapiens, MOLT-4, 72 h
Description: as §1, §2

[6] = system: UOC-M1; test: Cell viability, additional cell lines (CellTiter-Glo), UOC-M1; conditions: UOC-M1, 72 h
Description: as §1, §2

[7] = system: SU-DHL-1; test: Cell viability, additional cell lines (CellTiter-Glo), SU-DHL-1; conditions: Homo sapiens, SU-DHL-1, 72 h; read-out: Absolute IC50
Description: as §1, §2

[8] = system: HL-60; test: Cell viability, additional cell lines (CellTiter-Glo), HL-60; conditions: Homo sapiens, HL-60, 72 h; read-out: Absolute IC50
Description: as §1, §2

[9] = system: LP-1; test: Cell viability, additional cell lines (CellTiter-Glo), LP-1; conditions: Homo sapiens, LP-1, 72 h; read-out: Absolute IC50
Description: as §1, §2

[10] = system: NCI-H929; test: Cell viability, additional cell lines (CellTiter-Glo), NCI-H929; conditions: Homo sapiens, NCI-H929, 72 h; read-out: Absolute IC50
Description: as §1, §2

[11] = system: HEP-3B; test: Cell viability, additional cell lines (CellTiter-Glo), HEP-3B; conditions: Homo sapiens, Hep3B, 72 h
Description: as §1, §2

[12] = system: KG-1; test: Cell viability, additional cell lines (CellTiter-Glo), KG-1; conditions: Homo sapiens, KG-1, 72 h
Description: as §1, §2

[13] = system: U-266; test: Cell viability, additional cell lines (CellTiter-Glo), U-266; conditions: Homo sapiens, U-266, 72 h; read-out: Absolute IC50
Description: as §1, §2

[14] = system: MOLP-2; test: Cell viability, additional cell lines (CellTiter-Glo), MOLP-2; conditions: MOLP-2, 72 h
Description: as §1, §2

[15] = target: T1, Aiolos (IKZF3) (Homo sapiens, UniProt Q96SW2+Q9UKT9); test: Aiolos degradation assay, H929 cell line; conditions: H929 cells, 20 μM, 24 h
T1 construct: Aiolos degradation in the H929 cell line was investigated; endogenous in cells; host or cells: H929
Description: Cells were seeded on 6- or 12-well plates, and the compounds to be tested were added at the desired concentration range. […] After 24 h incubation (37° C., 5% CO2), cells were harvested, washed and cell lysates were prepared using RIPA lysis buffer. The amount of protein was determined via BCA assay, and the appropriate quantity was then loaded on the precast gel for the protein separation. After primary and secondary Ab staining, the membranes were washed and signals developed. The densitometry analysis was implemented to obtain the numeric values used later in the protein level evaluation process.

[16] = target: T2, GSPT1 (Homo sapiens, UniProt P15170+Q96SW2); test: GSPT1 degradation assay, Hep3B cell line; conditions: HEP3B cells, 24 h, read-out: % of GSPT1 protein reduction
T2 construct: GSPT1 degradation in the Hep3B cell line was investigated; endogenous in cells; host or cells: Hep3B
Method in brief: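 Hep3B cells treated 24 h at 37 °C with compounds across a concentration range (0.25% DMSO final). GSPT1 level measured by western blot densitometry, normalized to loading control and expressed as % of DMSO control.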

[17] = system: TMD8; test: Cell viability, additional cell lines (CellTiter-Glo), TMD8; conditions: Homo sapiens, TMD8, 72 h; read-out: Absolute IC50
Description: as §1, §2

[18] = 9.5 μM, read-out: Test/Control viability at 9.5 μM

T2 sequence (P15170 whole entry): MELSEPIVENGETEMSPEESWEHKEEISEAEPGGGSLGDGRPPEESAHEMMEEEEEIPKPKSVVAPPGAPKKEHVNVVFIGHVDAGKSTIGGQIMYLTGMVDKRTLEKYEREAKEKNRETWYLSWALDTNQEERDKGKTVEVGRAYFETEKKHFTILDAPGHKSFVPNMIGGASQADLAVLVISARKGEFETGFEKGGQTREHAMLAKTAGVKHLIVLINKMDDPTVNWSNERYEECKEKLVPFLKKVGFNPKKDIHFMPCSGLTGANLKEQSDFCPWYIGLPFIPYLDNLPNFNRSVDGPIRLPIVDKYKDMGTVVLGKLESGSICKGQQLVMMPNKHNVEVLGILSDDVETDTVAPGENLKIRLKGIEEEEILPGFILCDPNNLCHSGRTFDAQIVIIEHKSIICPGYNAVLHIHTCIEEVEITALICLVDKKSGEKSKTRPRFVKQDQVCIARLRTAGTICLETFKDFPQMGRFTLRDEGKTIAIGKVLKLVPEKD
T2 sequence (Q96SW2 whole entry): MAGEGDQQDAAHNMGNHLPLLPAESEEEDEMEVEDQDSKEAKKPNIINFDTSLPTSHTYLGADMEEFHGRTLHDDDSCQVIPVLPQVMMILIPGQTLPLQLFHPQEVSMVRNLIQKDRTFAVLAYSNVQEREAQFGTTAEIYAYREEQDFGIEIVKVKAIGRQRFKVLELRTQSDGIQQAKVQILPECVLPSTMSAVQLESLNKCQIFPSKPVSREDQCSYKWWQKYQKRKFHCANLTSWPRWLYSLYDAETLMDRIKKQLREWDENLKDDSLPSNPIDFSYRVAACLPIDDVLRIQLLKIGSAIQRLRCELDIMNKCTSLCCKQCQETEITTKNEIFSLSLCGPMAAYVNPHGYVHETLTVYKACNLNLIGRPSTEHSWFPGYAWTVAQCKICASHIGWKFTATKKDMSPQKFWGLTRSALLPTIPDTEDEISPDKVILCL
T2 sequence (Q16531 whole entry partner): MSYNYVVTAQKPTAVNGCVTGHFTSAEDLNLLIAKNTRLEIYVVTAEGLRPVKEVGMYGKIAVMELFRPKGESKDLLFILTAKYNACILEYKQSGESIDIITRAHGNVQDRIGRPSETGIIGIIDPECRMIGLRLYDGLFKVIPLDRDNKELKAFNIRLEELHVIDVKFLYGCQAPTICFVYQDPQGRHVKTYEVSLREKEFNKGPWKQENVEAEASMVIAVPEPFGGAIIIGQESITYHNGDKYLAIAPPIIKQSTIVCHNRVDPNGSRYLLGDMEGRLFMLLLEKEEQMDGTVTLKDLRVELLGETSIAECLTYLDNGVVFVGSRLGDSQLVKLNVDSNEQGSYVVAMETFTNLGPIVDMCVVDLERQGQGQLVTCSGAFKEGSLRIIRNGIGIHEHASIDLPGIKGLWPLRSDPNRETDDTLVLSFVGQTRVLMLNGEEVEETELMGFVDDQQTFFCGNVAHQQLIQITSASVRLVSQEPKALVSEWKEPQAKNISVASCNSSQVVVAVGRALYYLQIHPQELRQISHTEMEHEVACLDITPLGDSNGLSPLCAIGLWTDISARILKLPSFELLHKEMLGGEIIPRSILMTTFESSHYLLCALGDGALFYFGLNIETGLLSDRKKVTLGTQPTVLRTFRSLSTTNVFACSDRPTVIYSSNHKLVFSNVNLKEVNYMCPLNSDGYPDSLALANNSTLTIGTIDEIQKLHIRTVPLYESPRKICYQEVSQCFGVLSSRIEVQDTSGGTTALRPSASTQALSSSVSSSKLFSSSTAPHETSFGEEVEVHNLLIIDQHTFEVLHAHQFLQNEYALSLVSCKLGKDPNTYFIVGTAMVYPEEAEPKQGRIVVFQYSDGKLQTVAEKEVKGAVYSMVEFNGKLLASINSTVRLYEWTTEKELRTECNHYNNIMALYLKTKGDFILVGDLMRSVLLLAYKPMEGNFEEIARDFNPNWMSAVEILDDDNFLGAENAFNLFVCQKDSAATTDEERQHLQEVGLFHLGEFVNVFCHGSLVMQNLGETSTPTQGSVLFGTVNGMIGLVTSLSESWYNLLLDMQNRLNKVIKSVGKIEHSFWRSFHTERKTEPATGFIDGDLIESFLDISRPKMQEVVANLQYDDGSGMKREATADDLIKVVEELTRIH
T1 sequence (Q9UKT9 whole entry): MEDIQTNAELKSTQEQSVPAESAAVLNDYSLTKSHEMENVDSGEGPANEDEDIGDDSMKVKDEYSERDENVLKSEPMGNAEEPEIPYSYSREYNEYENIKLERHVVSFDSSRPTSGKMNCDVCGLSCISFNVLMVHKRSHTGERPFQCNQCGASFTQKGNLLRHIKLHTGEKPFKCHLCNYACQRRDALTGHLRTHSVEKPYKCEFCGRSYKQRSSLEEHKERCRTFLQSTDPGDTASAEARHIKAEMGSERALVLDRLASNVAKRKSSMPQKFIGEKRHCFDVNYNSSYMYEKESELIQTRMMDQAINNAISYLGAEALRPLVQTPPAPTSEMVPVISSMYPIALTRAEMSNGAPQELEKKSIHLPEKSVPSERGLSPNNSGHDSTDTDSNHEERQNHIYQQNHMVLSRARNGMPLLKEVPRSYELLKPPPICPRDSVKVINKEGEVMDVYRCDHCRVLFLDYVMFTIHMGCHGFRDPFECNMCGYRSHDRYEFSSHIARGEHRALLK
T1 sequence (Q96SW2 whole entry): as the sequence (Q96SW2 whole entry) above
T1 sequence (Q16531 whole entry partner): as the sequence (Q16531 whole entry partner) above

IC50 ([5]; read-out: Absolute IC50): ≥ 30 µM | IC50 [7]: > 30 µM | IC50 [8]: > 30 µM | IC50 [10]: > 30 µM | IC50 ([11]; read-out: Absolute IC50): 0.1 to 1 µM | inhibition at 1 µM ([16]; 1 uM): 80 to 100% | inhibition at 10 µM ([16]; 10 uM): 80 to 100%
Compound: NCc1ccc2c(c1)CN(C1CCC(=O)NC1=O)C2=O (centres unmarked) [Compound 1, 3-(5-(aminomethyl)-1-oxoisoindolin-2-yl)piperidine-2,6-dione]
IC50 [1]: > 30 µM | IC50 [2]: > 30 µM | IC50 [3]: > 30 µM | IC50 [4]: > 30 µM | viability at 9.5 µM [5, 18]: ≤ 60% | viability at 9.5 µM [6, 18]: ≤ 30% | IC50 ([6]; read-out: Absolute IC50): ≤ 0.1 µM | IC50 [9]: > 30 µM | viability at 9.5 µM [11, 18]: ≤ 30% | IC50 ([12]; read-out: Absolute IC50): ≤ 0.1 µM | viability at 9.5 µM [12, 18]: ≤ 30% | IC50 [13]: > 30 µM | viability at 9.5 µM [14, 18]: ≤ 60% | IC50 ([14]; read-out: Absolute IC50): 0.1 to 1 µM | % of IKZF3 protein reduction [15]: C (C represents 0-24% of IKZF1 protein reduction) | IC50 [17]: > 30 µM
